# Where a name gives a salt, the structure may show the parent alone.
# Biological target: T1, Human thrombin (Homo sapiens, UniProt P00734)
# T1 construct: purchased Haematologic Technologies Inc
# Assay: Thrombin protease activity inhibition, chromogenic substrate S-2238
# Assay type: biochemical
# Conditions: 3 nM thrombin, 125 μM S-2238, 10 min pre-incubation, RT
# Outline: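 Thrombin at 3 nM final in 0.05 M Tris pH 7.4, 0.015 M NaCl, 0.01% PEG-8000, at room temperature; compounds as ten-point three-fold dilutions.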
row,SMILES,IC50 [µM]
1,"FC(F)(F)CN1CCC(c2cc(NCc3ccc(Cl)s3)[nH]n2)CC1 [Entry 198, N-[(5-chlorothiophen-2-yl)methyl]-3-[1-(2,2,2-trifluoroethyl)piperidin-4-yl]-1H-pyrazol-5-amine]",> 100
2,"COCCN1CCC(c2cc(NCc3ccc(Cl)s3)[nH]n2)CC1 [Entry 200, N-[(5-chlorothiophen-2-yl)methyl]-3-[1-(2-methoxyethyl)piperidin-4-yl]-1H-pyrazol-5-amine]",> 100
3,"Clc1ccc(CNc2cc(C3CCN(CC4CC4)CC3)n[nH]2)s1 [Entry 201, N-[(5-chlorothiophen-2-yl)methyl]-3-[1-(cyclopropylmethyl)piperidin-4-yl]-1H-pyrazol-5-amine]",> 100
4,"O=C(N1CCOCC1)N1CCC(c2cc(NCc3ccc(Cl)s3)[nH]n2)CC1 [Entry 203, N-[(5-chlorothiophen-2-yl)methyl]-3-[1-(morpholine-4-carbonyl)piperidin-4-yl]-1H-pyrazol-5-amine]",> 100
5,"O=C(N1CCOCC1)N1CCC(c2cc(NCc3ccc(Cl)s3)[nH]n2)C1 (stereo not drawn) [Entry 206, N-[(5-chlorothiophen-2-yl)methyl]-3-[1-(morpholine-4-carbonyl)pyrrolidin-3-yl]-1H-pyrazol-5-amine]",> 100
6,"O=S(=O)(N1CCOCC1)N1CCC(c2cc(NCc3ccc(Cl)s3)[nH]n2)CC1 [Entry 207, N-[(5-chlorothiophen-2-yl)methyl]-3-[1-(morpholine-4-sulfonyl)piperidin-4-yl]-1H-pyrazol-5-amine]",> 100
7,"Clc1ccc(CNc2cc(C3CCN(Cc4cccnc4)CC3)n[nH]2)s1 [Entry 211, N-[(5-chlorothiophen-2-yl)methyl]-3-[1-(pyridin-3-ylmethyl)piperidin-4-yl]-1H-pyrazol-5-amine]",> 100
8,"O=C(N1CCOCC1)N1CCNC(c2cc(NCc3ccc(Cl)s3)[nH]n2)C1 (stereo not drawn) [Entry 212, N-[(5-chlorothiophen-2-yl)methyl]-3-[4-(morpholine-4-carbonyl)piperazin-2-yl]-1H-pyrazol-5-amine hydrochloride]",> 100
9,"O=C(N1CCOCC1)N1C2CCC1CC(c1cc(NCc3ccc(Cl)s3)[nH]n1)C2 (stereo not drawn) [Entry 214, N-[(5-chlorothiophen-2-yl)methyl]-3-[8-(morpholine-4-carbonyl)-8-azabicyclo[3.2.1]octan-3-yl]-1H-pyrazol-5-amine]",> 100
10,"Cc1cccc(CN2CCC(c3cc(NCc4ccc(Cl)s4)[nH]n3)CC2)n1 [Entry 220, N-[(5-chlorothiophen-2-yl)methyl]-3-1-[(6-methylpyridin-2-yl)methyl]piperidin-4-yl-1H-pyrazol-5-amine]",> 100
11,"FC(F)(F)C(c1ccccn1)N1CCC(c2cc(NCc3ccc(Cl)s3)[nH]n2)CC1 (stereo not drawn) [Entry 221, N-[(5-chlorothiophen-2-yl)methyl]-3-1-[2,2,2-trifluoro-1-(pyridin-2-yl)ethyl]piperidin-4-yl-1H-pyrazol-5-amine]",> 100
12,"FC(F)(CN1CCC(c2cc(NCc3ccc(Cl)s3)[nH]n2)CC1)c1ccccn1 [Entry 222, N-[(5-chlorothiophen-2-yl)methyl]-3-1-[2,2-difluoro-2-(pyridin-2-yl)ethyl]piperidin-4-yl-1H-pyrazol-5-amine]",> 100
13,"Clc1ccc(CNc2cc(C3CCN(CCc4ccccn4)CC3)n[nH]2)s1 [Entry 224, N-[(5-chlorothiophen-2-yl)methyl]-3-1-[2-(pyridin-2-yl)ethyl]piperidin-4-yl-1H-pyrazol-5-amine]",> 100
14,"CS(=O)(=O)N1C2CCC1CC(c1cc(NCc3ccc(Cl)s3)[nH]n1)C2 (stereo not drawn) [Entry 226, N-[(5-chlorothiophen-2-yl)methyl]-3-8-methanesulfonyl-8-azabicyclo[3.2.1]octan-3-yl-1H-pyrazol-5-amine]",> 100
15,"Cc1c(C2CCN(C(=O)c3cscn3)CC2)n[nH]c1NCc1ccc(Cl)s1 [Entry 236, N-[(5-chlorothiophen-2-yl)methyl]-4-methyl-3-[1-(1,3-thiazole-4-carbonyl)piperidin-4-yl]-1H-pyrazol-5-amine]",> 100
16,"Cc1c(C2CCN(C(=O)N3CCOCC3)CC2)n[nH]c1NCc1ccc(Cl)s1 [Entry 237, N-[(5-chlorothiophen-2-yl)methyl]-4-methyl-3-[1-(morpholine-4-carbonyl)piperidin-4-yl]-1H-pyrazol-5-amine]",10 to 100
17,"O=S(=O)(N1CCOCC1)N1CCC(c2cc(N(Cc3ccc(Cl)s3)S(=O)(=O)N3CCOCC3)[nH]n2)CC1 [Entry 238, N-[(5-chlorothiophen-2-yl)methyl]-N-3-[1-(morpholine-4-sulfonyl)piperidin-4-yl]-1H-pyrazol-5-ylmorpholine-4-sulfonamide]",1 to 10
18,"C=CCOC(=O)N1CCN(C(=O)N2CCOCC2)CC1c1cc(NCc2ccc(Cl)s2)n(C(=O)C(C)(C)C)n1 (stereo not drawn) [Entry 244, prop-2-en-1-yl 2-(5-[(5-chlorothiophen-2-yl)methyl]amino-1-(2,2-dimethylpropanoyl)-1H-pyrazol-3-yl)-4-(morpholine-4-carbonyl)piperazine-1-carboxylate]",1 to 10
19,"C=CCOC(=O)N1CCN(C(=O)CN2CCOCC2)CC1c1cc(NCc2ccc(Cl)s2)n(C(=O)C(C)(C)C)n1 (stereo not drawn) [Entry 245, prop-2-en-1-yl 2-(5-[(5-chlorothiophen-2-yl)methyl]amino-1-(2,2-dimethylpropanoyl)-1H-pyrazol-3-yl)-4-[2-(morpholin-4-yl)acetyl]piperazine-1-carboxylate]",1 to 10
20,"C=CCOC(=O)N1CCN(S(C)(=O)=O)CC1c1cc(NCc2ccc(Cl)s2)n(C(=O)C(C)(C)C)n1 (stereo not drawn) [Entry 246, prop-2-en-1-yl 2-(5-[(5-chlorothiophen-2-yl)methyl]amino-1-(2,2-dimethylpropanoyl)-1H-pyrazol-3-yl)-4-methanesulfonylpiperazine-1-carboxylate]",> 100
21,"C=CCOC(=O)N1CCN(CC(F)(F)F)CC1c1cc(NCc2ccc(Cl)s2)[nH]n1 (stereo not drawn) [Entry 248, prop-2-en-1-yl 2-(5-[(5-chlorothiophen-2-yl)methyl]amino-1H-pyrazol-3-yl)-4-(2,2,2-trifluoroethyl)piperazine-1-carboxylate]",> 100

# The remaining lines, values ahead:
row,IC50 [µM],SMILES
1,1 to 10,"Clc1ccc(CNc2cc(C3CCN(Cc4c[nH]cn4)CC3)n[nH]2)s1 [Entry 197, N-[(5-chlorothiophen-2-yl)methyl]-3-[1-(1H-imidazol-4-ylmethyl)piperidin-4-yl]-1H-pyrazol-5-amine]"
2,< 0.1,"O=C(N1CCOCC1)N1CCC(c2cc(NCc3ccc(Cl)s3)n(C(=O)c3cscn3)n2)C1 (stereo not drawn) [Entry 205, N-[(5-chlorothiophen-2-yl)methyl]-3-[1-(morpholine-4-carbonyl)pyrrolidin-3-yl]-1-(1,3-thiazole-4-carbonyl)-1H-pyrazol-5-amine]"
3,1 to 10,"Clc1ccc(CNc2cc(C3CCN(Cc4ccccn4)CC3)n[nH]2)s1 [Entry 210, N-[(5-chlorothiophen-2-yl)methyl]-3-[1-(pyridin-2-ylmethyl)piperidin-4-yl]-1H-pyrazol-5-amine]"
4,< 0.1,"O=C(N1CCOCC1)N1C2CCC1CC(c1cc(NCc3ccc(Cl)s3)n(C(=O)c3cscn3)n1)C2 (stereo not drawn) [Entry 213, N-[(5-chlorothiophen-2-yl)methyl]-3-[8-(morpholine-4-carbonyl)-8-azabicyclo[3.2.1]octan-3-yl]-1-(1,3-thiazole-4-carbonyl)-1H-pyrazol-5-amine]"
5,1 to 10,"Clc1ccc(CNc2cc(C3CCN(CCN4CCOCC4)CC3)n[nH]2)s1 [Entry 223, N-[(5-chlorothiophen-2-yl)methyl]-3-1-[2-(morpholin-4-yl)ethyl]piperidin-4-yl-1H-pyrazol-5-amine]"
6,< 0.1,"CS(=O)(=O)N1C2CCC1CC(c1cc(NCc3ccc(Cl)s3)n(C(=O)c3cscn3)n1)C2 (stereo not drawn) [Entry 225, N-[(5-chlorothiophen-2-yl)methyl]-3-8-methanesulfonyl-8-azabicyclo[3.2.1]octan-3-yl-1-(1,3-thiazole-4-carbonyl)-1H-pyrazol-5-amine]"
7,< 0.1,"CC1(C(=O)n2nc(C3CCOCC3)c(F)c2NCc2ccc(Cl)s2)CCOCC1 [Entry 229, N-[(5-chlorothiophen-2-yl)methyl]-4-fluoro-1-(4-methyloxane-4-carbonyl)-3-(oxan-4-yl)-1H-pyrazol-5-amine]"
8,0.1 to 1,"C=CCOC(=O)N1CCN(C(=O)N2CCOCC2)CC1c1cc(NCc2ccc(Cl)s2)n(C(=O)c2cscn2)n1 (stereo not drawn) [Entry 240, prop-2-en-1-yl 2-(5-[(5-chlorothiophen-2-yl)methyl]amino-1-(1,3-thiazole-4-carbonyl)-1H-pyrazol-3-yl)-4-(morpholine-4-carbonyl)piperazine-1-carboxylate]"
9,0.1 to 1,"C=CCOC(=O)N1CCN(C(=O)CN2CCOCC2)CC1c1cc(NCc2ccc(Cl)s2)n(C(=O)c2cscn2)n1 (stereo not drawn) [Entry 241, prop-2-en-1-yl 2-(5-[(5-chlorothiophen-2-yl)methyl]amino-1-(1,3-thiazole-4-carbonyl)-1H-pyrazol-3-yl)-4-[2-(morpholin-4-yl)acetyl]piperazine-1-carboxylate]"
10,0.1 to 1,"C=CCOC(=O)N1CCN(S(C)(=O)=O)CC1c1cc(NCc2ccc(Cl)s2)n(C(=O)c2cscn2)n1 (stereo not drawn) [Entry 242, prop-2-en-1-yl 2-(5-[(5-chlorothiophen-2-yl)methyl]amino-1-(1,3-thiazole-4-carbonyl)-1H-pyrazol-3-yl)-4-methanesulfonylpiperazine-1-carboxylate]"
11,< 0.1,"C=CCOC(=O)N1CCCC1c1cc(NCc2ccc(Cl)s2)n(C(=O)c2cscn2)n1 (stereo not drawn) [Entry 243, prop-2-en-1-yl 2-(5-[(5-chlorothiophen-2-yl)methyl]amino-1-(1,3-thiazole-4-carbonyl)-1H-pyrazol-3-yl)pyrrolidine-1-carboxylate]"
12,< 0.1,"C=CCOC(=O)N1CCCC1c1cc(NCc2ccc(Cl)s2)n(C(=O)C(C)(C)C)n1 (stereo not drawn) [Entry 247, prop-2-en-1-yl 2-(5-[(5-chlorothiophen-2-yl)methyl]amino-1-(2,2-dimethylpropanoyl)-1H-pyrazol-3-yl)pyrrolidine-1-carboxylate]"
